Entries after “also recorded” stand apart in the source; their conditions may differ.
What was measured:
[1] = tested on: colonic epithelial T84 cells (calcium-mediated chloride ion secretion); assay: Inhibition of calcium-mediated chloride ion secretion (Table I summary); format: cell-based, human; conditions: pathway: Ins (3,4,5,6)P4
Excerpt: The invention provides compounds that are agonists or antagonists of inositol polyphosphates. Inositol polyphosphate derivatives can function as inositol polyphosphate agonists and antagonists. The effects of compounds of the invention on Ins(3,4,5,6)P4 - and PtdInsP3 -mediated inhibition of calcium-mediated chloride ion secretion are described in the Examples and summarized in Table I.
(§1) Enantiomerically pure 1,2-Bt2 -Ins(3,4,5,6)P4 /AM was synthesized to determine if 1,2-Bt2 -Ins(3,4,5,6)P4 /AM mediates the uncoupling of chloride ion secretion from intracellular calcium concentrations. T84 cells (passages 18-48) were maintained as described previously (Weymer, et al., J. Clin. Invest. 76:1828 (1985)), which is incorporated herein by reference. After 7-10 days of incubation on SNAP-WELLS (Corning Costar; Cambridge, Mass.), monolayers had formed tight junctions. Cell monolayers were preincubated with 100, 200 or 400 μM Bt2 -Ins(3,4,5,6)P4 /AM for 30 min prior to mounting. After an additional 30 min, 0.1 mM histamine was added and chloride ion secretion was monitored. Chloride ion secretion was measured as short circuit current (Isc) across T84 monolayers grown to confluence and mounted in Ussing chambers equipped with voltage clamps (Physiologic Instruments; San Diego, Calif.). Data was acquired and analyzed using "Acquire and Analyze" software (Physiologic Instruments).

[2] = tested on: T84 cells (histamine-stimulated chloride ion secretion); assay: Histamine-stimulated chloride ion secretion (short circuit current) in T84 monolayers; format: cell-based, human; conditions: for effect on histamine-stimulated / calcium-mediated chloride ion secretion (in words): T84 cells
Experimental: as §1, with “T84 cells (passages 18-48) were maintained as described previously (Weymer, et al., J. Clin. Invest. 76:1828 (1985)), which is incorporated herein by reference.” left out
(§2) Initial studies were directed towards understanding structural determinants of Ins(3,4,5,6)P4 responsible for the inhibitory effect on calcium-mediated chloride ion secretion. A series of cell permeable inositol polyphosphate derivatives were synthesized. These derivatives contained either one or two non-hydrolyzable chemical groups on the 1, 2 or 3 position. T84 monolayers were preincubated for 30 minutes with 200 μM of 2-Bt-1-Me-Ins(3,4,5,6)P4 /AM, Me2 -Ins(3,4,5,6)P4 /AM, Me2 -Ins(1,4,5,6)P4 /AM or 2-Bt-3-Me-Ins(1,4,5,6)P4 /AM.
(§3) Following the incubation, cells were mounted in Ussing chambers. Calcium-mediated chloride ion secretion was stimulated with histamine (10^-4 M). Control values were the response to histamine in coincubated monolayers. Data are represented as mean peak ΔIsc ±SEM, expressed as % control for 8 to 10 experiments. Significant differences were identified using the Student's two-tailed t test.

[3] = tested on: T84 cells (Ins(3,4,5,6)P4 inhibition of histamine-stimulated chloride ion secretion); assay: Reversal of Bt2 -Ins(3,4,5,6)P4 /AM inhibition of histamine-stimulated chloride ion secretion in T84 cells; format: cell-based, human; conditions: T84 cells, histamine-stimulated
Experimental: as §2, §3
T84 cells were preincubated with cell permeant inositol polyphosphates as described above to determine if any of the inositol polyphosphate derivatives function as antagonists of Ins(3,4,5,6)P4 inhibition of calcium-mediated chloride ion secretion. Following histamine stimulation, short circuit current was measured. […] The % control shown in FIG. 3 represents ΔIsc over peak Isc in control monolayers stimulated with histamine. However, […]

[4] = tested on: T84 cells (histamine-stimulated chloride ion secretion); assay: Histamine-stimulated chloride ion secretion (short circuit current) in T84 monolayers; format: cell-based; conditions: Homo sapiens, T84, 0.5 h; 800 μM compound alone; mean ± SEM; read-out: Peak ΔIsc (% Control) after histamine (100 μM)
[5] = tested on: T84 cells (Ins(3,4,5,6)P4 inhibition of histamine-stimulated chloride ion secretion); assay: Reversal of Bt2 -Ins(3,4,5,6)P4 /AM inhibition of histamine-stimulated chloride ion secretion in T84 cells; format: cell-based, human; conditions: 400 μM antagonist + 200 μM Bt2 Ins (3,4,5,6)P4 /AM; mean ± SEM; 30 min
[6] = tested on: T84 cells (cyclic AMP-mediated chloride ion secretion); assay: Dibutyryl cyclic AMP acetoxymethyl ester stimulated chloride ion secretion in T84 cells; format: cell-based, human
Experimental: as §1, with “After an additional 30 min, 0.1 mM histamine was added and chloride ion secretion was monitored.” left out
[…]; mean±SEM; n=4).

[7] = tested on: rabbit colon (calcium-mediated chloride ion secretion); assay: Chloride ion secretion in rabbit colonic epithelia (Ussing chambers)
Experimental: The results obtained above using T84 colonic epithelial cells in culture were confirmed using a rabbit colon model system (Frizzell et al., J. Membrane Biol. 27:297 (1976); and Frizell and Schultz, Int. Rev. Physiol. 19:205 (1979)), each of which is incorporated herein by reference. Segments of rabbit colon were excised and used as a source of rabbit colonic epithelia. Briefly, segments of rabbit colon were washed with Ringers solution containing 141 mM Na^+, 5 mM K^+, 1.2 mM Ca^2+, 1.2 mM Mg^2+, 122 mM Cl^-, 25 mM HCO3, 1.6 mM HPO4, 0.4 mM H2 PO4 and 10 mM glucose. At 37° C., this solution is pH 7.4 when gassed with 5% CO2 and 95% O2. Epithelium was stripped of the underlying muscle layer and mounted in modified SNAP WELLS (Frizzell et al., supra, 1976). Epithelia were preincubated with 200 μM 1,2-Bt2 -Ins(3,4,5,6)P4 /AM for 30 min at 37° C. and mounted in Ussing chambers. Short circuit current, conductance and resistance were measured at 4 sec intervals as described in Example I. Peak Isc was 50.9% ±10.4 of controls which were incubated with vehicle (FIG. 2; mean±SEM, n=3; p<0.05 by Student's two tailed t-test). The % control shown in FIG. 2 represents ΔIsc over peak Isc in control monolayers stimulated with histamine.

[8] = tested on: intracellular calcium; assay: Intracellular calcium concentration in treated cells; format: cell-based, human
Experimental: Elevation in intracellular calcium concentration leads to increased chloride ion secretion. To ensure that none of the effects of the inositol polyphosphate derivatives on chloride ion secretion were due to changes in calcium levels, the concentration of intracellular calcium was measured in cells treated with the inositol polyphosphate derivatives. […] None of the compounds tested altered intracellular calcium levels by themselves or modified levels of intracellular calcium stimulated with carbachol or thapsigargin. Therefore, the effects of inositol polyphosphate derivatives on chloride ion secretion are not due to any effect on intracellular calcium concentrations.

[9] = tested on: Ins(1,3,4)P3-5/6-kinase; conditions: Vajanaphanich et al. 1994; cited from earlier work
[10] = tested on: T84 cells (thapsigargin-stimulated chloride ion secretion); assay: Thapsigargin-stimulated chloride ion secretion in T84 cells; format: cell-based, human; conditions: carbachol 10^-4 M, thapsigargin 1 μM; FIG. 5A
Excerpt: Carbachol, a muscarinic cholinergic compound, also increases intracellular calcium ion concentration and stimulates chloride ion secretion with short term treatment. However, following long-term treatment of colonic epithelial T84 cells with carbachol, increased concentrations of intracellular calcium ions no longer stimulate chloride ion secretion (Kachintorn et al., Am. J. Physiol. Cell 264:C671 (1993)), which is incorporated herein by reference. […] Thus, Ins(3,4,5,6)P4 is an endogenous negative regulator of calcium-mediated chloride ion secretion because it uncouples chloride ion secretion from calcium ion concentration.
One set of cells was preincubated for 30 min with an inositol polyphosphate derivative. The other two sets of cells were preincubated with vehicle, alone. Measurement of Isc was initiated at time 0. At 5 min, carbachol (10^-4 M) was added to one set of cells preincubated with vehicle alone (designated "Carbachol" in FIG. 5) and to the set of cells preincubated with inositol polyphosphate derivatives (designated "Carbachol+D,L-1,2-Cyclohexylidene-Ins(3,4,5,6)P4 /AM" in FIG. 5A). At 30 min, 1 μM thapsigargin was added. Data were collected for n=4 to 6 experiments.

[11] = tested on: Ins(3,4,5,6)P4; conditions: cited from earlier work
[12] = tested on: inositol 1 kinase; conditions: in vitro; Tan et al.; cited from earlier work
[13] = tested on: T84 cells (histamine-stimulated chloride ion secretion); conditions: equivalent to 200 μM extracellular concentration; Vajanaphanich et al.; cited from earlier work

CCCC(=O)O[C@@H]1[C@H](OC)[C@H](OP(=O)(OCOC(C)=O)OCOC(C)=O)[C@@H](OP(=O)(OCOC(C)=O)OCOC(C)=O)[C@H](OP(=O)(OCOC(C)=O)OCOC(C)=O)[C@H]1OP(=O)(OCOC(C)=O)OCOC(C)=O (relative stereo) [D,L-1-Bt-2-Me-Ins(3,4,5,6)P4 /AM, D,L-1-O-butyryl-2-O-methyl-myo-inositol 3,4,5,6-TKphosphate oct (acetoxymethyl) ester]
Mechanism and Inositol Polyphosphate Pathway Affected [1]: Agonist of
effect on histamine-stimulated / calcium-mediated chloride ion secretion (in words) [2]: did not inhibit chloride ion secretion
reversal of the inhibitory effect of Bt2 -Ins(3,4,5,6)P4 /AM / Ins(3,4,5,6)P4-mediated inhibition (in words) [3]: did not reverse the inhibition of Bt2 -Ins(1,4,5,6)P4 /AM
activity at 800 µM [4]: 114 ± 23.7%
Peak ΔIsc (% Control) after histamine (100 μM) [5]: 96.7 ± 14.8 % Control

CCCC(=O)O[C@@H]1[C@H](OC(=O)CCC)[C@H](OP(=O)(OCOC(C)=O)OCOC(C)=O)[C@@H](OP(=O)(OCOC(C)=O)OCOC(C)=O)[C@H](OP(=O)(OCOC(C)=O)OCOC(C)=O)[C@H]1OP(=O)(OCOC(C)=O)OCOC(C)=O [Bt2 -Ins(3,4,5,6)P4 /AM, 1,2-di-O-butyryl-myo-inositol 3,4,5,6-TKphosphate oct (acetoxymethyl) ester]
Mechanism and Inositol Polyphosphate Pathway Affected [1]: Agonist of
activity at 100 µM ([2]; Homo sapiens, T84, 0.5 h, 100 μM compound, mean ± SEM, read-out: Peak ΔIsc (% Control) after histamine (100 μM)): 75.1 ± 7.4%
activity at 200 µM ([2]; Homo sapiens, T84, 0.5 h, 200 μM compound alone, mean ± SEM, read-out: Peak ΔIsc (% Control) after histamine (100 μM)): 57.2 ± 15.1%
activity at 400 µM ([2]; Homo sapiens, T84, 0.5 h, 400 μM compound alone, mean ± SEM, read-out: Peak ΔIsc (% Control) after histamine (100 μM)): 69.3 ± 8.7%
effect on histamine-stimulated / calcium-mediated chloride ion secretion (in words) [2]: inhibit calcium-mediated chloride secretion; also recorded: inhibited chloride ion secretion in response to increased concentrations of intracellular calcium; also recorded: decreased histamine-stimulated chloride ion secretion relative to control cells
concentration for maximum decrease of histamine-stimulated chloride ion secretion ([2]; extracellular, no further decrease with 400 μM): 200 µM
inhibition of dibutyryl cyclic AMP acetoxymethyl ester stimulated chloride ion secretion (in words) [6]: no inhibition
peak ΔIsc, dibutyryl cyclic AMP acetoxymethyl ester stimulated chloride ion secretion ([6]; mean±SEM, n=4): 96.3±9.1 % or control
effect on chloride ion secretion in rabbit colon (in words) ([7]; FIG. 2 / Example II): inhibition of chloride ion secretion; also recorded: decreases chloride ion secretion in rabbit colon
activity at 200 µM ([7]; Oryctolagus cuniculus, 0.5 h, 200 μM, 30 min at 37° C., mean±SEM, n=3, p<0.05, read-out: Peak Isc, of controls): 50.9%
effect on intracellular calcium (in words) ([8]; alone): does not increase intracellular calcium
effect on calcium response to thapsigargin or carbachol (in words) ([8]; thapsigargin or carbachol stimulated): does not affect calcium response to thapsigargin
effective intracellular concentration [9]: about 4 μM

C[N+](C)(C)CCOC(N)=O [Carbachol]
effect of prolonged carbachol on thapsigargin-stimulated ΔIsc (in words) [10]: ΔIsc was attenuated
increase in Ins(3,4,5,6)P4 levels ([11]; background): ≤ 20 -fold
rise of intracellular Ins(3,4,5,6)P4 levels (in words) ([11]; long-term treatment, Vajanaphanich et al.): slow and prolonged rise of intracellular Ins(3,4,5,6)P4 levels

O=P(O)(O)O[C@H]1[C@H](O)[C@@H](O)[C@H](OP(=O)(O)O)[C@@H](OP(=O)(O)O)[C@H]1O [Ins(1,3,4)P3]
effect on inositol 1 kinase (in words) [12]: inhibited inositol 1 kinase

O=P(O)(O)O[C@H]1[C@H](OP(=O)(O)O)[C@@H](OP(=O)(O)O)[C@@H](O)[C@@H](O)[C@@H]1OP(=O)(O)O [Ins(3,4,5,6)P4, myo-inositol 3,4,5,6-tetrakisphosphate]
intracellular level corresponding to onset of maximum inhibition [13]: ~4 µM

Source: US5880099A, “Inositol polyphosphates and methods of using same” (The Regents of the University of California, priority 1997, dated 1999)
